US20080311126A1, “Antisense Oligonucleotides Directed to Ribonucleotide Reducatase R2 and Uses Thereof in Combination Therapies for the Treatment of Cancer” (Genesense Technologies, Inc, priority 2004, published 2008)
Oligonucleotides are written 5' to 3', each unit as a sugar letter and its base; * is a phosphorothioate linkage, no mark a phosphodiester; rarer units and linkages stand in square brackets, end groups in braces. Plain capitals give the bases only. d = 2'-deoxy (DNA)

Columns and labels:
Test in all cases: Relative colony forming efficiency (Example 17, Table 13)
Format in all cases: cell-based, human
[1] = system: HepG2 hepatocellular carcinoma; conditions: averages of 2-8 determinations
Experimental: (§1) Colony forming efficiency was determined using standard protocols. […] The test oligonucleotides were added to cell cultures in the presence of 2.5 μg of DOTMA/DOPE (Lipofectin; Life Technologies, Inc.) for four hours. The oligonucleotide was tested at 0.2 μM unless otherwise indicated. Controls were the cultures treated with lipofectin but without the oligonucleotide. […] Surviving cells were visualized by methylene blue staining, and colonies were scored. In some experiments cell aliquots were removed from the culture and viability was determined using the trypan blue exclusion test. Results were analyzed as percent of surviving cells compared to control cells. To test the antisense effects of many of these sequences as phosphorthioate deoxyribonucleotides, they were examined in relative colony forming experiments conducted as described in Example 16 with a series of human tumour cell lines. The results (shown as % inhibition of colony forming ability) obtained with cancer cells derived from the bladder, breast, lung, colon, pancreas, prostate, liver and cervix, are shown in Table 13. The specific cell lines employed are as follows: […]

[2] = system: MDA PaCa-2 pancreatic cell carcinoma; conditions: MIA PaCa-2 pancreatic cell carcinoma; averages of 2-8 determinations
Experimental: as §1

[3] = system: PC-3 prostrate cell adenocarcinoma; conditions: averages of 2-8 determinations
Experimental: as §1

[4] = system: HCT116 colon cell carcinoma; conditions: averages of 2-8 determinations
Experimental: as §1

A549 lung cell carcinoma = conditions: averages of 2-8 determinations
Experimental: as §1

[5] = system: T24 bladder cell carcinoma; conditions: averages of 2-8 determinations
Experimental: as §1

| Sequence | Reduced relative colony forming efficiency, HepG2 (% inhibition of colony forming ability) [1] | Reduced relative colony forming efficiency, MIA PaCa-2 (% inhibition of colony forming ability) [2] | Reduced relative colony forming efficiency, PC-3 (% inhibition of colony forming ability) [3] | Reduced relative colony forming efficiency, HCT116 (% inhibition of colony forming ability) [4] | Reduced relative colony forming efficiency, A549 (% inhibition of colony forming ability) (A549 lung cell carcinoma) | Reduced relative colony forming efficiency, T24 (% inhibition of colony forming ability) [5] |
| --- | --- | --- | --- | --- | --- | --- |
| CGGCTCATCCTCCACGC (antisense dC*dG*dG*dC*dT*dC*dA*dT*dC*dC*dT*dC*dC*dA*dC*dG*dC) [AS-II-391-17] | 60.64% | 26.35% | 93.25% | – | – | – |
| TTCTGGCAAAAGGTGATACT (antisense dT*dT*dC*dT*dG*dG*dC*dA*dA*dA*dA*dG*dG*dT*dG*dA*dT*dA*dC*dT) [AS-II-1538-20] | 96.84% | 50.62% | 84.71% | 51.28% | 90.34% | 67.29% |
| TGGGACAGGGTGCACGGGCG (antisense dT*dG*dG*dG*dA*dC*dA*dG*dG*dG*dT*dG*dC*dA*dC*dG*dG*dG*dC*dG) [AS-II-130-20] | 94.28% | 82.11% | 74.66% | – | 86.48% | – |
| GAAGCCATAGAAACAGCGGG (antisense dG*dA*dA*dG*dC*dC*dA*dT*dA*dG*dA*dA*dA*dC*dA*dG*dC*dG*dG*dG) [AS-II-667-20] | 88.23% | 85.26% | 91.8% | – | 70.3% | 70.48% |
| ATGGTACTCGATGGGGAAGA (chemistry not given here) [AS-II-439-20] | 73.04% | 92.69% | 77.66% | 64.7% | 76.46% | 67.84% |
| GCATCCAAGGTAAAAGAATT (antisense dG*dC*dA*dT*dC*dC*dA*dA*dG*dG*dT*dA*dA*dA*dA*dG*dA*dA*dT*dT) [AS-II-1335-20] | 72.98% | 78.78% | 90.04% | 67.87% | 78.59% | 59.95% |
| GACGGCTGGGACAGGGTGCA (antisense dG*dA*dC*dG*dG*dC*dT*dG*dG*dG*dA*dC*dA*dG*dG*dG*dT*dG*dC*dA) [AS-II-134-20] | – | – | 77.51% | – | – | – |
| TCCTCGCGGTCTTGCTGGCC (antisense dT*dC*dC*dT*dC*dG*dC*dG*dG*dT*dC*dT*dT*dG*dC*dT*dG*dG*dC*dC) [AS-II-323-20] | 96.39% | 97.55% | 79.76% | 55.8% | 91.24% | – |
| CCGTGGGCTCCTGGAAGATC (antisense dC*dC*dG*dT*dG*dG*dG*dC*dT*dC*dC*dT*dG*dG*dA*dA*dG*dA*dT*dC) [AS-II-344-20] | – | – | 80.06% | – | – | – |
| TTGTGTACCAGGTGTTTGAA (antisense dT*dT*dG*dT*dG*dT*dA*dC*dC*dA*dG*dG*dT*dG*dT*dT*dT*dG*dA*dA) [AS-II-1023-20] | – | 42.82% | 87.63% | – | 34.52% | 58.26% |
